{"source": "patent US20240000777A1", "about": "“USE OF AN ERK INHIBITOR FOR THE TREATMENT OF MYELOFIBROSIS” (Novartis AG, priority 2020, published 2024)", "key": {"[1]": {"tested_on": "Jak2V617F Erk1-/- Erk2 fl/fl Mx-Cre mice", "test": "Genetic deletion of ERK1/2 plus ruxolitinib in Jak2V617F MPN mouse model", "type": "in vivo", "details": "ruxolitinib for 2 weeks combined with ERK1/2 deletion", "from_the_text": "Jak2V617F Mx-Cre mouse was crossed with Erk1−/− Erk2 fl/fl Mx-Cre mice to genetically delete ERK1/2 to obtain Jak2V617F Erk1−/− Erk2 fl/fl Mx-Cre offspring."}, "[2]": {"tested_on": "JAK2V617F PV/MF mouse model", "type": "in vivo", "details": "oral, 14 consecutive days, ruxolitinib 60 mg/kg BID, Compound A 75 mg/kg QD"}}}
{"smiles": "N#CC[C@H](C1CCCC1)n1cc(-c2ncnc3[nH]ccc23)cn1", "note": "[ruxolitinib, (R)-3-(4-(7H-pyrrolo[2,3-d]pyrimidin-4-yl)-1H-pyrazol-1-yl)-3-cyclopentylpropanenitrile]", "values": [{"measurement": "normalizing red blood cell count", "setting": "[1]; FIG. 7B", "result": "more effective"}, {"measurement": "reducing the mutant clone", "setting": "[1]; versus single interventions, FIG. 7A", "result": "more effective"}]}
{"smiles": "CNC[C@@H](NC(=O)c1ccc(-c2nc([C@H]3CC[C@H](O)[C@@H](F)C3)cnc2N)cc1F)c1cc(F)cc(Br)c1", "note": "[Compound A, 4-(3-amino-6-((1S,3S,4S)-3-fluoro-4-hydroxycyclohexyl)pyrazin-2-yl)-N—((S)-1-(3-bromo-5-fluorophenyl)-2-(methylamino)ethyl)-2-fluorobenzamide]", "values": [{"measurement": "polycythemia", "setting": "[2]", "result": "significantly normalizes"}, {"measurement": "elevated hematocrit", "setting": "[2]; FIG. 3A", "result": "significantly normalizes"}, {"measurement": "splenomegaly", "setting": "[2]; FIG. 3B", "result": "significantly normalizes"}]}
